Results reported in patent US6762164B2, “Use of 3-position cyclosporin derivatives for hair growth” (LG Household & Health Care Ltd., priority 2001, dated 2004).

system: Female C57BL/6 mice; test: Test for hair growth promoting effect: hair regrowth on shaved backs of mice; format: in vivo; conditions: shaved back, 100 μl (conc. 0.1% w/v) applied once a day for 30 days, visual approach
Experimental: Female C57BL/6 mice of ages 6 to 7 weeks were utilized. After removing hairs on the middle of the back with an electric shaver, the mice were weighed and randomly assigned to the test groups with an even distribution of weights. The mice were given one day for adaptation. From the next day, mice were applied once a day on their backs with cyclosporin A and the cyclosporin A derivatives (Compounds 1 to 7) prepared by HPLC in Example 1 in amounts of 100 μl (conc. 0.1% w/v) for 30 days. The results were determined by visual approach, in terms of degrees of hair regrowth. With respect to respective hair-removed areas, rates of new hair growth were examined and compared.

Point of comparison: “[D-2-(methylamino)pent-4-ynoyl^3] cyclosporin A [Compound 4]”, “Area rate of hair regrowth (%)” value 96%. Against it:
- [D-2-(methylamino)hexa-4-ynoyl^3] cyclosporin A [Compound 3] — lower, 95%
- [D-2-(methylthio)-Sar^3] cyclosporin A [Compound 5] — lower, 93%
- [N-methyl-D-Abu3] cyclosporin A [Compound 1] — lower, 95%
- [N-methyl-D-Nva^3] cyclosporin A [Compound 2] — lower, 91%
- [N-methyl-D-Ser^3] cyclosporin A [Compound 7] — lower, 90%
- [N-methyl-O-propenyl-D-Ser^3] cyclosporin A [Compound 6] — lower, 94%
- cyclosporin A [reference compound] — lower, 91%
